Source: US12077503B2, “Substituted cyclic amides and their use as herbicides” (FMC CORPORATION, priority 2015, dated 2024)

What was measured:
Format in all cases: in vivo
[1] = system: ivy-leaved morning glory (Ipomoea hederacea); assay: Test G Post-Emergence Protocol; conditions: Ipomoea, post-emergence, 312 h; for pest or weed control at 15.625 g/ha: 15.625 g ai/ha, evaluated after 13 days (100=total damage to plant; 0=no damage to plant), read-out: Morningglory, Ivy-leaved damage rating; for pest or weed control at 62.5 g/ha: 62.5 g ai/ha, read-out: Morningglory, Ivy-leaved damage rating (100=total damage to plant; 0=no damage to plant); for pest or weed control at 62.5 g/ha / pest or weed control at 250 g/ha: evaluated after 13 days; for pest or weed control at 250 g/ha: 250 g ai/ha, read-out: damage to plant, Morningglory, Ivy-leaved (100=total damage to plant; 0=no damage to plant)
Procedure, shortened: (§1)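 Sow in soil; grow 8 d (24/16 °C, 14 h light, 65% humidity); spray 15.625/62.5/250 g/ha in acetone:water 50:50 + 0.5% Tween 20; grow on, water twice daily; score damage 0–100 at 13 d.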

[2] = system: velvetleaf (Abutilon theophrasti); assay: Test G Post-Emergence Protocol; conditions: Abutilon theophrasti, post-emergence, 312 h; for pest or weed control at 15.625 g/ha: 15.625 g ai/ha, evaluated after 13 days (100=total damage to plant; 0=no damage to plant), read-out: Velvetleaf damage rating; for pest or weed control at 62.5 g/ha: 62.5 g ai/ha, read-out: Velvetleaf damage rating (100=total damage to plant; 0=no damage to plant); for pest or weed control at 62.5 g/ha / pest or weed control at 250 g/ha: evaluated after 13 days; for pest or weed control at 250 g/ha: 250 g ai/ha, read-out: damage to plant, Velvetleaf (100=total damage to plant; 0=no damage to plant)
Procedure, shortened: as §1

corn (Zea mays) [3] = assay: Test G Post-Emergence Protocol; conditions: Zea mays, post-emergence, 312 h; for plant injury at 15.625 g/ha: 15.625 g ai/ha, evaluated after 13 days (100=total damage to plant; 0=no damage to plant), read-out: Corn damage rating; for plant injury at 62.5 g/ha: 62.5 g ai/ha, read-out: Corn damage rating (100=total damage to plant; 0=no damage to plant); for plant injury at 62.5 g/ha / plant injury at 250 g/ha: evaluated after 13 days; for plant injury at 250 g/ha: 250 g ai/ha, read-out: damage to plant, Corn (100=total damage to plant; 0=no damage to plant)
Procedure, shortened: as §1

[4] = system: giant foxtail (Setaria faberi); assay: Test G Post-Emergence Protocol; conditions: Setaria faberi, post-emergence, 312 h; for pest or weed control at 15.625 g/ha: 15.625 g ai/ha, evaluated after 13 days (100=total damage to plant; 0=no damage to plant), read-out: Foxtail, Giant damage rating; for pest or weed control at 62.5 g/ha: 62.5 g ai/ha, read-out: Foxtail, Giant damage rating (100=total damage to plant; 0=no damage to plant); for pest or weed control at 62.5 g/ha / pest or weed control at 250 g/ha: evaluated after 13 days; for pest or weed control at 250 g/ha: 250 g ai/ha, read-out: damage to plant, Foxtail, Giant (100=total damage to plant; 0=no damage to plant)
Procedure, shortened: as §1

[5] = system: redroot pigweed (Amaranthus retroflexus); assay: Test G Post-Emergence Protocol; conditions: Amaranthus retroflexus, post-emergence, 312 h; for pest or weed control at 15.625 g/ha: 15.625 g ai/ha, evaluated after 13 days (100=total damage to plant; 0=no damage to plant), read-out: Pigweed, Redroot damage rating; for pest or weed control at 62.5 g/ha: 62.5 g ai/ha, read-out: Pigweed, Redroot damage rating (100=total damage to plant; 0=no damage to plant); for pest or weed control at 62.5 g/ha / pest or weed control at 250 g/ha: evaluated after 13 days; for pest or weed control at 250 g/ha: 250 g ai/ha, read-out: damage to plant, Pigweed, Redroot (100=total damage to plant; 0=no damage to plant)
Procedure, shortened: as §1

[6] = system: barnyardgrass (Echinochloa crus-galli); assay: Test G Post-Emergence Protocol; conditions: Echinochloa crus-galli, post-emergence, 312 h; for pest or weed control at 15.625 g/ha: 15.625 g ai/ha, evaluated after 13 days (100=total damage to plant; 0=no damage to plant), read-out: Barnyardgrass damage rating; for pest or weed control at 62.5 g/ha: 62.5 g ai/ha, read-out: Barnyardgrass damage rating (100=total damage to plant; 0=no damage to plant); for pest or weed control at 62.5 g/ha / pest or weed control at 250 g/ha: evaluated after 13 days; for pest or weed control at 250 g/ha: 250 g ai/ha, read-out: damage to plant, Barnyardgrass (100=total damage to plant; 0=no damage to plant)
Procedure, shortened: as §1

[7] = system: ivy-leaved morning glory (Ipomoea hederacea); assay: Test G Pre-Emergence Protocol; conditions: Ipomoea, pre-emergence, 312 h, evaluated after 13 days; for pest or weed control at 15.625 g/ha: 15.625 g ai/ha, read-out: Morning-glory, Ivy-leaved damage rating (100=total damage to plant; 0=no damage to plant); for pest or weed control at 62.5 g/ha: 62.5 g ai/ha, 100=total damage to plant, 0=no damage to plant, read-out: plant damage rating, Morningglory, Ivy-leaved; for pest or weed control at 250 g/ha: 250 g ai/ha, read-out: Morningglory, Ivy-leaved damage rating (100=total damage to plant; 0=no damage to plant)
Procedure, shortened: (§2)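 Spraying took place one day after sowing, at 15.625, 62.5 or 250 g/ha, using an acetone/water (50:50) spray solution containing 0.5% Tween 20. Plants were kept under glasshouse conditions (24/16 °C, 14 h light, 65% humidity, watered twice daily), and injury was rated 0–100 at day 13.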

[8] = system: velvetleaf (Abutilon theophrasti); assay: Test G Pre-Emergence Protocol; conditions: Abutilon theophrasti, pre-emergence, 312 h, evaluated after 13 days; for pest or weed control at 15.625 g/ha: 15.625 g ai/ha; for pest or weed control at 15.625 g/ha / pest or weed control at 250 g/ha: read-out: Velvetleaf damage rating (100=total damage to plant; 0=no damage to plant); for pest or weed control at 62.5 g/ha: 62.5 g ai/ha, 100=total damage to plant, 0=no damage to plant, read-out: plant damage rating, Velvetleaf; for pest or weed control at 250 g/ha: 250 g ai/ha
Procedure, shortened: as §2

corn (Zea mays) [9] = assay: Test G Pre-Emergence Protocol; conditions: Zea mays, pre-emergence, 312 h, evaluated after 13 days; for plant injury at 15.625 g/ha: 15.625 g ai/ha; for plant injury at 15.625 g/ha / plant injury at 250 g/ha: read-out: Corn damage rating (100=total damage to plant; 0=no damage to plant); for plant injury at 62.5 g/ha: 62.5 g ai/ha, 100=total damage to plant, 0=no damage to plant, read-out: plant damage rating, Corn; for plant injury at 250 g/ha: 250 g ai/ha
Procedure, shortened: as §2

[10] = system: giant foxtail (Setaria faberi); assay: Test G Pre-Emergence Protocol; conditions: Setaria faberi, pre-emergence, 312 h, evaluated after 13 days; for pest or weed control at 15.625 g/ha: 15.625 g ai/ha; for pest or weed control at 15.625 g/ha / pest or weed control at 250 g/ha: read-out: Foxtail, Giant damage rating (100=total damage to plant; 0=no damage to plant); for pest or weed control at 62.5 g/ha: 62.5 g ai/ha, 100=total damage to plant, 0=no damage to plant, read-out: plant damage rating, Foxtail, Giant; for pest or weed control at 250 g/ha: 250 g ai/ha
Procedure, shortened: as §2

[11] = system: redroot pigweed (Amaranthus retroflexus); assay: Test G Pre-Emergence Protocol; conditions: Amaranthus retroflexus, pre-emergence, 312 h, evaluated after 13 days; for pest or weed control at 15.625 g/ha: 15.625 g ai/ha; for pest or weed control at 15.625 g/ha / pest or weed control at 250 g/ha: read-out: Pigweed, Redroot damage rating (100=total damage to plant; 0=no damage to plant); for pest or weed control at 62.5 g/ha: 62.5 g ai/ha, 100=total damage to plant, 0=no damage to plant, read-out: plant damage rating, Pigweed, Redroot; for pest or weed control at 250 g/ha: 250 g ai/ha
Procedure, shortened: as §2

[12] = system: barnyardgrass (Echinochloa crus-galli); assay: Test G Pre-Emergence Protocol; conditions: Echinochloa crus-galli, pre-emergence, 312 h, evaluated after 13 days; for pest or weed control at 15.625 g/ha: 15.625 g ai/ha, read-out: Barnyard grass damage rating (100=total damage to plant; 0=no damage to plant); for pest or weed control at 62.5 g/ha: 62.5 g ai/ha, 100=total damage to plant, 0=no damage to plant, read-out: plant damage rating, Barnyardgrass; for pest or weed control at 250 g/ha: 250 g ai/ha, read-out: Barnyardgrass damage rating (100=total damage to plant; 0=no damage to plant)
Procedure, shortened: as §2

## CN1C[C@@H](c2ccc(C(F)(F)F)cc2)[C@H](C(=O)Nc2ccncc2Cl)C1=O (racemic) [Compound 1608]
[1]
  pest or weed control at 15.625 g/ha: 40%
  pest or weed control at 62.5 g/ha: 30%
  pest or weed control at 250 g/ha: 40%
[2]
  pest or weed control at 15.625 g/ha: 0%
  pest or weed control at 62.5 g/ha: 0%
  pest or weed control at 250 g/ha: 0%
Corn (Zea mays) [3]
  plant injury at 15.625 g/ha: 0%
  plant injury at 62.5 g/ha: 10%
  plant injury at 250 g/ha: 20%
[4]
  pest or weed control at 15.625 g/ha: 0%
  pest or weed control at 62.5 g/ha: 10%
  pest or weed control at 250 g/ha: 60%
[5]
  pest or weed control at 15.625 g/ha: 0%
  pest or weed control at 62.5 g/ha: 10%
  pest or weed control at 250 g/ha: 20%
[6]
  pest or weed control at 15.625 g/ha: 0%
  pest or weed control at 62.5 g/ha: 10%
  pest or weed control at 250 g/ha: 10%
[7]
  pest or weed control at 15.625 g/ha: 0%
  pest or weed control at 62.5 g/ha: 0%
  pest or weed control at 250 g/ha: 0%
[8]
  pest or weed control at 15.625 g/ha: 0%
  pest or weed control at 62.5 g/ha: 0%
  pest or weed control at 250 g/ha: 0%
Corn (Zea mays) [9]
  plant injury at 15.625 g/ha: 0%
  plant injury at 62.5 g/ha: 0%
  plant injury at 250 g/ha: 0%
[10]
  pest or weed control at 15.625 g/ha: 0%
  pest or weed control at 62.5 g/ha: 0%
  pest or weed control at 250 g/ha: 0%
[11]
  pest or weed control at 15.625 g/ha: 0%
  pest or weed control at 62.5 g/ha: 10%
  pest or weed control at 250 g/ha: 20%
[12]
  pest or weed control at 15.625 g/ha: 0%
  pest or weed control at 62.5 g/ha: 0%
  pest or weed control at 250 g/ha: 0%

## CN1C[C@@H](c2ccc(C(F)(F)F)cc2)[C@H](C(=O)Nc2cncnc2)C1=O (racemic) [Compound 1583]
[1]
  pest or weed control at 15.625 g/ha: 0%
  pest or weed control at 62.5 g/ha: 10%
  pest or weed control at 250 g/ha: 30%
[2]
  pest or weed control at 15.625 g/ha: 0%
  pest or weed control at 62.5 g/ha: 0%
  pest or weed control at 250 g/ha: 20%
Corn (Zea mays) [3]
  plant injury at 15.625 g/ha: 0%
  plant injury at 62.5 g/ha: 0%
  plant injury at 250 g/ha: 0%
[4]
  pest or weed control at 15.625 g/ha: 0%
  pest or weed control at 62.5 g/ha: 20%
  pest or weed control at 250 g/ha: 10%
[5]
  pest or weed control at 15.625 g/ha: 0%
  pest or weed control at 62.5 g/ha: 0%
  pest or weed control at 250 g/ha: 20%
[6]
  pest or weed control at 15.625 g/ha: 0%
  pest or weed control at 62.5 g/ha: 0%
  pest or weed control at 250 g/ha: 20%
[7]
  pest or weed control at 15.625 g/ha: 0%
  pest or weed control at 62.5 g/ha: 0%
  pest or weed control at 250 g/ha: 0%
[8]
  pest or weed control at 15.625 g/ha: 0%
  pest or weed control at 62.5 g/ha: 0%
  pest or weed control at 250 g/ha: 0%
Corn (Zea mays) [9]
  plant injury at 15.625 g/ha: 0%
  plant injury at 62.5 g/ha: 0%
  plant injury at 250 g/ha: 0%
[10]
  pest or weed control at 15.625 g/ha: 0%
  pest or weed control at 62.5 g/ha: 0%
  pest or weed control at 250 g/ha: 30%
[11]
  pest or weed control at 15.625 g/ha: 0%
  pest or weed control at 62.5 g/ha: 0%
  pest or weed control at 250 g/ha: 30%
[12]
  pest or weed control at 15.625 g/ha: 0%
  pest or weed control at 62.5 g/ha: 0%
  pest or weed control at 250 g/ha: 0%
